Tests used:
Toll-like receptor 3 = target: T1, Toll-like receptor 3 (Homo sapiens, UniProt O15455); test: Antagonist activity at human TLR3 overexpressed in HEK-Blue cells assessed as inhibition of Poly IC-induced NFkappaB and AP-1 activation preincubated for 30 mins followed by Poly IC stimulation measured after 22 hrs by quanti-blue SEAP assay; format: cell-based
T1 sequence (O15455 whole entry): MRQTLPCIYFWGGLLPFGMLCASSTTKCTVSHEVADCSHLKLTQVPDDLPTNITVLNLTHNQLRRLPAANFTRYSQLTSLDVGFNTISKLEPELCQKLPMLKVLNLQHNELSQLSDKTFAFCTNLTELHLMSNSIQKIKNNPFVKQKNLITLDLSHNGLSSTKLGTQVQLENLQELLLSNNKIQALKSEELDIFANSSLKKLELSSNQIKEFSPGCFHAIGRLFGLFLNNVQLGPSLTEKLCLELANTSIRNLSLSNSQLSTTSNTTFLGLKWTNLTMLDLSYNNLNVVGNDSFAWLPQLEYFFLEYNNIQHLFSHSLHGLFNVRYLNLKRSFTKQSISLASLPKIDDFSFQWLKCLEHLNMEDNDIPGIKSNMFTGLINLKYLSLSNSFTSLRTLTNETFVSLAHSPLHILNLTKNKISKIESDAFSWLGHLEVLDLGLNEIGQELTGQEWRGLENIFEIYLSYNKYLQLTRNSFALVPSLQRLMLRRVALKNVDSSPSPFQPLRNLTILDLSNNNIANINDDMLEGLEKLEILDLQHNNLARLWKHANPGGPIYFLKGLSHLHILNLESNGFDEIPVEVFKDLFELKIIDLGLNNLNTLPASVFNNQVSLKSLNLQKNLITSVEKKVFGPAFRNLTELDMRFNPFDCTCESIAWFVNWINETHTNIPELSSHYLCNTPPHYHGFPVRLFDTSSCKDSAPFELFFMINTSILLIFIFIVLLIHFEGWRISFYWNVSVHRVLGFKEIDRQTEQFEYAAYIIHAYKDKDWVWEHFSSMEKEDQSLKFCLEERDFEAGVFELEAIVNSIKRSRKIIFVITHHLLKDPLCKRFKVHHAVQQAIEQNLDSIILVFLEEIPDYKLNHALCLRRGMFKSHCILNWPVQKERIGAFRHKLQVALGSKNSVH

Toll-like receptor 4 = Toll-like receptor 4 (Homo sapiens, UniProt O00206); test: Antagonist activity at human TLR4 overexpressed in HEK-Blue cells assessed as inhibition of […] induced NFkappaB and AP-1 activation preincubated for 30 mins followed by […] stimulation measured after 22 hrs by quanti-blue SEAP assay; format: cell-based
Toll-like receptor 9 [1] = target: T2, Toll-like receptor 9 (Homo sapiens, UniProt Q9NR96); test: Agonist activity at human TLR9 overexpressed in HEK-Blue cells assessed as NFkappaB expression by reporter gene assay; format: cell-based
T2 sequence (Q9NR96 whole entry): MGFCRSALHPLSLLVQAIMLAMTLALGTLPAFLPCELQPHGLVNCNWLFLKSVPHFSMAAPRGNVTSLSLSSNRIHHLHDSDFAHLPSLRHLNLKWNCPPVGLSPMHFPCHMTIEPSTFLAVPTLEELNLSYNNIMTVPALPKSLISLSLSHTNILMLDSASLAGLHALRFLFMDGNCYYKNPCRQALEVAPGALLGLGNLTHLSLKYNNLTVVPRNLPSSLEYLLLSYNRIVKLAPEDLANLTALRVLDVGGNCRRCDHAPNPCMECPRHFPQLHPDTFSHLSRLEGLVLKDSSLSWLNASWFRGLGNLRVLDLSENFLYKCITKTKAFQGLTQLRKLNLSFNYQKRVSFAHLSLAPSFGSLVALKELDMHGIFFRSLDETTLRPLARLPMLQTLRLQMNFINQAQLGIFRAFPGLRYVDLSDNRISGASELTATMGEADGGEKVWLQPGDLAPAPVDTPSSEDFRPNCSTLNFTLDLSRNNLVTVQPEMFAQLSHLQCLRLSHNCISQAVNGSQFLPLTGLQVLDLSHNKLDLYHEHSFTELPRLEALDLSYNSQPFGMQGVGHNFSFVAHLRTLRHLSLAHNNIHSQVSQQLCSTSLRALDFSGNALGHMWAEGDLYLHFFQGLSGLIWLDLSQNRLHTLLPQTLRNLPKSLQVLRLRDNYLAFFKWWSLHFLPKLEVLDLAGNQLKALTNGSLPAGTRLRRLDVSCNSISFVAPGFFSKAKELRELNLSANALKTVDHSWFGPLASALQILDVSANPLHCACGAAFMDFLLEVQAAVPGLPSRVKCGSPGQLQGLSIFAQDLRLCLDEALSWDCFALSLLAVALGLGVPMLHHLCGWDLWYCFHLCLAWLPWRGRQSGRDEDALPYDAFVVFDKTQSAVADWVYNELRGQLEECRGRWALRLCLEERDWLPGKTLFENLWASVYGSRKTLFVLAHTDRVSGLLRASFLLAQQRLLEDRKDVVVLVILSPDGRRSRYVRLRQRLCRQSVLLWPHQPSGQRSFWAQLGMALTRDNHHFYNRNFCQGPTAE

Toll-like receptor 9 [2] = target: T2, Toll-like receptor 9; test: Antagonist activity at TLR9 in human pDC assessed as inhibition of ODN2216-induced IFN-alpha production incubated for 24 hrs measured by ELISA
[3] = Tmax in mouse at 15 mg/kg, po; format: ADME, organism-based; conditions: in vivo
[4] = Cmax in mouse at 15 mg/kg, po; format: ADME, organism-based; design: dose 15 mg/kg, route oral; conditions: in vivo
[5] = Volume of distribution in steady state in mouse at 3 mg/kg, iv; format: ADME, organism-based; conditions: in vivo, read-out: Vdss

Chain of Toll-like receptor 4 (O00206 whole entry): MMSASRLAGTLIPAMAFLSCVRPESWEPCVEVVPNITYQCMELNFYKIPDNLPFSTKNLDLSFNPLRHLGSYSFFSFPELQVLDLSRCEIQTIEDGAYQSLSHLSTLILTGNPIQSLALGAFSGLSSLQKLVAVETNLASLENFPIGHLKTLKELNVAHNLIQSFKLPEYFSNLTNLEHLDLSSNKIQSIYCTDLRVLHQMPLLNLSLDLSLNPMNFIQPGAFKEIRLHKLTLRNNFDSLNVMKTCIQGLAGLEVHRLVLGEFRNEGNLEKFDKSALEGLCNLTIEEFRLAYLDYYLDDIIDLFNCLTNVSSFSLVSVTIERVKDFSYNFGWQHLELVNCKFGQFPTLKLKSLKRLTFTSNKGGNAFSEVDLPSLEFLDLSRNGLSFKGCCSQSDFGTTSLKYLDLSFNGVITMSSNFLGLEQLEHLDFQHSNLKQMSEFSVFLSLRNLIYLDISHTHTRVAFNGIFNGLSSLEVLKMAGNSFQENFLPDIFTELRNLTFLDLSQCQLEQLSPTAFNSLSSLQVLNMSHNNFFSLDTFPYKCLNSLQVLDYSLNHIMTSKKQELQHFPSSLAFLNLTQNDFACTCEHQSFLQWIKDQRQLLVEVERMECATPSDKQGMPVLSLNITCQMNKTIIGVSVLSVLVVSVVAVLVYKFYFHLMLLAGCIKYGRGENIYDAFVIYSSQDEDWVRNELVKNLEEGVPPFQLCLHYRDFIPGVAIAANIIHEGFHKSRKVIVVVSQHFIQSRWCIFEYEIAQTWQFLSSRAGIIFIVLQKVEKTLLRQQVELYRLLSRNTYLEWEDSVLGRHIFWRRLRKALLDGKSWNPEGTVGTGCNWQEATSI

**Q.** With `CNCCN1CCC(c2ccc3[nH]c(-c4ccc(OC)c(OC)c4)c(C(C)C)c3c2)CC1` as the molecule, how does the IC50 (Toll-like receptor 3) read?
**A.** 5.44 µM

**Q.** And the IC50 (Toll-like receptor 4)?
**A.** 15.1 µM

**Q.** What about the IC50 (Toll-like receptor 9 [1]) of the same molecule?
**A.** > 50 µM

**Q.** And the IC50 (Toll-like receptor 9 [2])?
**A.** 210 nM

**Q.** And the Tmax [3]?
**A.** 30 min

**Q.** What about the Cmax [4] of the same molecule?
**A.** 1630 nM

**Q.** What about the Vd [5] of the same molecule?
**A.** 20 L/kg

— ChEMBL document CHEMBL4619828, “Discovery of Potent and Orally Bioavailable Small Molecule Antagonists of Toll-like Receptors 7/8/9 (TLR7/8/9)” (ACS Med Chem Lett, 2020)
